SMILES strings stand for the structures.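 48-hour exposure; five concentrations; linearly interpolated endpoints. Abbreviation: GI50, concentration required for 50% inhibition of growth. Definition used: TGI = concentration required for complete inhibition of growth.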

Holding throughout (assay): inhibition of tumour cell growth, NCI panel, 48 h
Assay [1] deals with U251 CNS.
The test system of assay [2] is SN12C renal.
The subject of assay [3] is SNB-19 CNS.
For assay [4], the system named is NCI-H23 lung.
For assay [5], the system named is NCI-H226 lung.
The test system of assay [6] is HCT-15 colon.
For assay [7], the system named is SR leukemia.
Assay [8] concerns UO-31 renal.
In assay [9] the test system is OVCAR-3 ovarian.
Assay [10] relates to SNB-75 CNS.
Assay [11] deals with SF-539 CNS.
Assay [12] relates to BT-549 breast.
The test system of assay [13] is HCT-116 colon.
The test system of assay [14] is TK-10 renal.
Assay [15] concerns HT29 colon.

As for `C=C(C)[C@H]1C=C[C@@H](OC(=O)c2cccnc2)[C@@]23CO[C@@](C)([C@H](OC(=O)c4cccnc4)[C@@]4(OC(C)=O)C[C@H](C)[C@H](OCCC)[C@@H]4[C@H]2OC(C)=O)[C@H]13`, the TGI in [1], in assay [2], in [3], in assay [4], in [5] and in assay [6] was more than 15 µM each time. For the same molecule, the TGI in assay [7], in assay [8], in [9], in assay [10], in assay [11] and in [12] was more than 15 µM throughout. The TGI in assay [13] and in assay [14] was more than 15 µM in each case.
With `C=C(C)[C@@]1(OC(=O)c2cc([N+](=O)[O-])cc([N+](=O)[O-])c2)C[C@@H]2CCCC[C@@H]21`, the TGI in [1], in [2], in assay [3], in assay [4], in assay [5] and in assay [6] was more than 100 µM each time. The TGI in assay [7], in [8], in assay [10], in assay [11], in [12] and in assay [13] was more than 100 µM each time. Further, the TGI in assay [14] and in assay [15] was more than 100 µM throughout.
On to `CC(=O)Nc1ccc2[nH]c(-c3cccc(Cl)c3)cc(=O)c2c1`, for which the TGI in assay [1] was 23.8 µM; in [2] it was more than 100 µM; in [3] it was more than 100 µM; in assay [4], more than 100 µM; in assay [6], more than 100 µM; in assay [7], more than 100 µM. Also, the TGI in [10] is more than 100 µM; in assay [11], 30 µM; in [12], more than 100 µM; in assay [14], more than 100 µM; in assay [15], 33.7 µM.
For `N#C/C(C(=O)Nc1ccc(Cl)cc1)=C(/N)N1CCCCC1`, the TGI in assay [1], in [2], in [3], in [4], in [5] and in [6] was more than 100 µM throughout. In addition, the TGI was more than 100 µM in assay [7]; more than 100 µM in [8]; more than 100 µM in assay [9]; 72.3 µM in [10]; more than 100 µM in [11]; more than 100 µM in assay [12]. This molecule displayed a TGI in assay [13] of more than 100 µM.
Take `COc1cc(C2C(C#N)=C(N)OC3=C2CCS(=O)(=O)c2ccc(C)cc23)cc(OC)c1OC` (stereo not given): the TGI in assay [1], in assay [2], in [3], in assay [4], in [5] and in [6] was more than 100 µM each time. Also, the TGI in [7], in assay [8], in assay [9], in [10], in [12] and in assay [13] was more than 100 µM each time. Moreover, the TGI in [14] and in [15] was more than 100 µM throughout.
Consider `CN(N)c1cc(=O)[nH]c(=O)[nH]1`, for which the TGI in [2], in assay [3], in [4], in assay [5], in [6] and in assay [7] was more than 100 µM each time. Moreover, the TGI in assay [9] was more than 100 µM; in assay [11], more than 100 µM; in assay [12], 50.6 µM; in assay [13], more than 100 µM; in assay [14] it was more than 100 µM; in assay [15], more than 100 µM.
Take `Nc1cc(N2CCCC2)nc(=O)n1-c1ccccc1`: the TGI in assay [1], in assay [2], in assay [3], in assay [4], in assay [5] and in assay [6] was more than 100 µM in each case. Also, the TGI in assay [7], in [10], in assay [11], in assay [12], in assay [13] and in [14] was more than 100 µM throughout. In assay [15], the TGI is more than 100 µM.
Consider `[O-][n+]1ccccc1S`, for which the TGI in [1], in assay [2], in assay [3], in [4], in assay [5] and in assay [6] was more than 100 µM throughout. Further, the TGI in assay [8] was more than 100 µM; in [9], 2.78 µM; in assay [10], more than 100 µM; in assay [11], more than 100 µM; in [12], more than 100 µM; in [13], 4.5 µM. Also, the TGI stood at 4.71 µM in assay [14] and 2.32 µM in [15]. In addition, in [12], the GI50 was 27.1 µM.
Turning to `CC(=O)Oc1ccccc1/C=C/C(=O)/C=C/c1ccccc1OC(C)=O`, the TGI is 3.18 µM in assay [1]; 4.07 µM in assay [2]; 6.53 µM in assay [3]; 4.61 µM in [4]; 3.89 µM in assay [5]; 9.34 µM in assay [6]. Also, the TGI was determined as 3.48 µM in assay [8]; 4.23 µM in assay [9]; 5.95 µM in assay [10]; 3.33 µM in assay [11]; 3.97 µM in [12]; 0.973 µM in assay [13]. Besides, the TGI in assay [14] came out at 10.6 µM; in assay [15], 4.25 µM.
With `CCN(CC)c1ccc2cc(C(=O)Nc3ccccc3)c(=N)oc2c1`, the TGI in [1], in assay [2], in [3], in assay [5], in [6] and in assay [7] was more than 100 µM each time. The TGI in assay [8], in [10], in assay [11], in assay [12], in [13] and in assay [14] was more than 100 µM each time. The same molecule had a TGI in assay [15] of more than 100 µM.
Regarding `Cc1nc2c(=O)n(-c3ccccc3)c3ccccc3c2o1`, the TGI in assay [1], in [2], in assay [3], in [4], in assay [5] and in assay [6] was more than 100 µM throughout. The TGI in [8], in assay [9], in [10], in [11], in assay [12] and in assay [13] was more than 100 µM throughout. Besides, the TGI in [14] and in [15] was more than 100 µM each time.
As to `O=S(=O)(O)c1ccc(N=Nc2c(O)ccc3cc(Br)ccc23)cc1`, the TGI in [1], in assay [2], in [3], in assay [4], in assay [6] and in [7] was more than 100 µM each time. Moreover, the TGI in [8], in assay [9], in [10], in [12], in assay [13] and in [14] was more than 100 µM throughout. The molecule also came in with a TGI in assay [15] of more than 100 µM.
As for `Clc1cc(Cl)cc(C2ON=C(c3ccccc3)N2C23CC4CC(CC(C4)C2)C3)c1` (stereo not given), the TGI in [1], in assay [2], in [3], in assay [4], in [5] and in assay [6] was more than 10 µM in each case. Also, the TGI in [8], in assay [9], in assay [10], in [11], in [12] and in assay [13] was more than 10 µM in each case. The TGI in assay [14] and in assay [15] was more than 10 µM each time.
`CCN1C(=O)C(C)S/C1=N\NC(=O)CSc1nc2ccccc2c(=O)n1CC` (stereo not given): the TGI in assay [1], in [2], in assay [3], in assay [4], in [5] and in [6] was more than 100 µM in each case. Also, the TGI in assay [7], in assay [8], in assay [9], in assay [10], in [11] and in [12] was more than 100 µM in each case. The TGI in assay [13] and in assay [14] was more than 100 µM in each case.
For `O=C1NC(=O)C2(CCCCCC2)N1`, the TGI in assay [1], in assay [2], in assay [3], in [4], in assay [5] and in assay [6] was more than 100 µM throughout. Besides, the TGI in assay [8], in assay [9], in assay [10], in [11], in [12] and in assay [13] was more than 100 µM each time. Further, the TGI in assay [14] and in assay [15] was more than 100 µM each time.
`COc1ccc(/C(O)=C/c2nc3cccnc3nc2/C=C(\O)c2ccc(OC)cc2)cc1`: the TGI in [1] was 37.7 µM; in assay [2] it was 42.5 µM; in [3], 57.5 µM; in assay [4], 30.7 µM; in [5] it was 22.5 µM; in [6], more than 100 µM. Moreover, the TGI in assay [7] was determined as 51.2 µM; in assay [8], 71.2 µM; in assay [9], 38.8 µM; in [11], 25.4 µM; in assay [12], 53.5 µM; in assay [13], 52.3 µM. The TGI in [14] worked out at 37.7 µM; in [15], 79.3 µM.
For the molecule `O=C(O)c1ccc(NC(NC(=O)C(C(F)(F)F)C(F)(F)F)(C(F)(F)F)C(F)(F)F)cc1`, the TGI in assay [1], in assay [2], in [3], in [4], in [6] and in [7] was more than 100 µM in each case. The TGI in assay [8], in assay [10], in [11], in assay [12], in assay [13] and in [14] was more than 100 µM in each case. For the same molecule, the TGI in assay [15] was more than 100 µM.
Regarding `CC(=O)CSc1c(-c2ccccc2)c(=O)n(-c2ccccc2)c(=S)n1-c1ccccc1`, the TGI in assay [1], in assay [2], in assay [3], in assay [4], in assay [5] and in [6] was more than 100 µM each time. Moreover, the TGI in [7], in assay [8], in [9], in assay [10], in assay [12] and in [13] was more than 100 µM throughout. Further, the TGI in [14] and in assay [15] was more than 100 µM each time.
In the case of `CN(C)CCN=C1Nc2ccccc2C(=S)N2CSCC12` (stereo not given), the TGI in assay [1], in assay [2], in [3], in assay [5], in [6] and in assay [7] was more than 100 µM in each case. Further, the TGI in [8], in assay [9], in [10], in [12], in assay [13] and in assay [14] was more than 100 µM each time. Further, the TGI in [15] was more than 100 µM.
Take `O=C(O)CCc1ccc2c(c1)C(=O)CC2`: the TGI in [1], in assay [2], in assay [3], in [4], in assay [5] and in [6] was more than 100 µM throughout. In addition, the TGI in [7], in assay [8], in [9], in assay [11], in [12] and in assay [13] was more than 100 µM throughout. Besides, the TGI in assay [14] and in [15] was more than 100 µM in each case.

Source of the values: PubChem BioAssay (NCI).
